According to ChEMBL document CHEMBL1130553, “Covalent binding of catechols to src family SH2 domains” (Bioorg Med Chem Lett, 1997):

These compounds were tested against T1, Tyrosine-protein kinase Fyn (Homo sapiens, UniProt P06241) (assay: Inhibition of peptide EPQ (pY) EEIPI binding to Fyn protein kinase SH2 domain).
T1 sequence (P06241 whole entry, the tested form may be a part): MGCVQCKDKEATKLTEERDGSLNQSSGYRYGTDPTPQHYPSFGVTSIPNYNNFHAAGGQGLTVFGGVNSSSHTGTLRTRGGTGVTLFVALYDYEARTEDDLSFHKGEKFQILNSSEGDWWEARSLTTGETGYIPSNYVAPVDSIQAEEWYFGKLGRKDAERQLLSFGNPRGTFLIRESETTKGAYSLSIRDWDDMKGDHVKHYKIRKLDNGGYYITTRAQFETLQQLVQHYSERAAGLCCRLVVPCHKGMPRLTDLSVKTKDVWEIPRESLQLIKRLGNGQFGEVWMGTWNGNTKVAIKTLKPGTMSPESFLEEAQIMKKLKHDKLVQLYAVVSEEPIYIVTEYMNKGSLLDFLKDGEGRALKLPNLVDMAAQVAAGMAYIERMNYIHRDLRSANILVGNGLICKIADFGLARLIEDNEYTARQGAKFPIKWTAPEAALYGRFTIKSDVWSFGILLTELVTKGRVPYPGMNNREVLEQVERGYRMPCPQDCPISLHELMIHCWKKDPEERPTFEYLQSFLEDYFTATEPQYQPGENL
`Oc1cc2c(cc1O)CC(NCc1ccccc1)C2` showed an IC50 of 10 µM.
With `CCCN(CCC)C1CCc2cc(O)c(O)cc2C1` (centres undefined) the IC50 was 50 µM.
`CC1=CC(=O)C(=O)C=C1C` was tested, and the IC50 was 1 µM.
In the case of `CCCN(CCC)C1Cc2c(O)ccc(O)c2C1`, the IC50 is reported as 50 µM.
Work on `NC1Cc2cc(O)c(O)cc2C1` yielded an IC50 of 10 µM.
`CCCN(CCC)C1Cc2cc(O)c(O)cc2C1` was tested, and the IC50 was 10 µM.
`Oc1cc2c(cc1O)CC(N1CCCCC1)C2` was tested, and the IC50 was 10 µM.
`CCCC1Cc2cc(O)c(O)cc2C1` showed an IC50 of 1 µM.

The compounds below were run against T1, Tyrosine-protein kinase Fyn (assay: Inhibition of peptide EPQ (pY) EEIPI binding to Fyn protein kinase SH2 domain at 100 uM (no inhibition)).
For `CCCN(CCC)CCc1ccc(O)c(O)c1`, the IC50 was > 100 µM.
With `CCCN(CCC)C1Cc2cc(O)c(OC)cc2C1` (centres undefined) the IC50 was > 100 µM.
In the case of `CCCN(CCC)C1Cc2ccc(O)cc2C1` (centres undefined), the IC50 is reported as > 100 µM.
In the case of `CCCN(CCC)C1Cc2cc(O)cc(O)c2C1` (centres undefined), the IC50 is reported as > 100 µM.
For `NCCc1ccc(O)c(O)c1` [DOPAMINE], the IC50 was > 100 µM.
For `CCCN(CCC)C1Cc2cc(OC)c(OC)cc2C1` [PNU-99194A], the IC50 was > 100 µM.
